Like-named read-outs stand apart in the source and are kept apart here.
Key:
[1] = tested on: G-quadruplex DNA (F21T oligonucleotide); assay: FRET DNA melting assay; type: binding; settings: [conc]ΔTm=20 value
Protocol: The ability of the compounds to stabilise G-quadruplex DNA was investigated using a fluorescence resonance energy transfer (FRET) assay modified to be used as a high-throughput screen in a 96-well format. The labelled oligonucleotide F21T (5′-FAM-dGGG(TTAGGG)-3-TAMRA-3′) used as the FRET probe was diluted from stock to the correct concentration (400 nM) in a 50 mM potassium cacodylate buffer (pH 7.4) and then annealed by heating to 85° C. for 10 min., followed by cooling to room temperature in the heating block.
Compounds were stored as 10 mM stock solutions in DMSO; final solutions (at 2× concentration) were prepared using water or 1M HCl in the initial 1:10 dilution, after which 50 mM potassium cacodylate buffer (pH 7.4) was used in all subsequent steps. 96-well plates (MJ Research, Waltham, Mass.) were prepared by aliquoting 50 μl of the annealed DNA to each well, followed by […] of the compound solutions. Measurements were made on a DNA Engine Opticon (MJ Research) with excitation at 450-495 nm and detection at 515-545 nm. Fluorescence readings were taken at intervals of 0.5° C. over the range 30-100° C., with a constant temperature being maintained for 30 seconds prior to each reading to ensure a stable value. Final analysis of the data was carried out using a script written in the program Origin 7.0 (OriginLab Corp., Northampton, Mass.). […]

Metabolic stability, HLM = type: in vitro ADME, human
[2] = Cytotoxicity / growth inhibition, A549; type: cell-based; settings: human, A549 cells; read-out: Cytotoxic IC50 vs. A549
HPLC solution stability = type: physicochemical
Protocol: Due to the generally low solubility of these compounds in 0.9% NaCl and 5% dextrose it was decided to mix these media with 50% Iso-propanol (IPA) to maintain full dissolution of the compound during these studies.
The remaining 5 mg/ml DMSO stock solution from the pKa determination was used for the stability studies. This solution had been stored in the fridge for several days before these stability studies. A solution with a concentration of 0.1 mg/ml was prepared for each experiment (50 fold dilution of DMSO stock). Stability trials were carried out at 4° C. (fridge) and 25° C. (on top of shaker at 25° C.) and at time points of 0, 1 and 7 days. In the case of 100% IPA data was collected at 0, 1 and 14 days after storage at 25° C. The HPLC purity method discussed in section 4.5 below was used for purity analysis. The largest and second largest peaks were added together due to separation of rotamers as discussed above.

[3] = Cytotoxicity / growth inhibition, MCF7; type: cell-based; settings: human, MCF7 cells; read-out: Cytotoxic IC50 vs. MCF7
[4] = pKa measurement (Sirius GlpKa, potentiometric and UV titration); type: physicochemical
Protocol: Pka determination was performed on a Sirius GlpKa instrument equipped with a D-PAS (Dip-Probe Absorption Spectroscopy) attachment. Measurements were made by potentiometric and UV titration in MeOH:H2O mixtures at 25° C. The titration media was ionic strength adjusted with 0.15 M KCl. The values found in the MeOH:H2O mixtures were extrapolated to 0% co-solvent via a Yasuda-Shedlovsky extrapolation. Prediction of pKa values was made using ACD v8.07 software.
BSG01-4.14 from aqueous UV measurement (Potentiometry gave 4.15 although incomplete curves were collected). Other values from potentiometric in Aqueous/MeOH mixtures followed by Yasuda-Shedlovsky extrapolation to 0% MeOH. All pKas basic from slope of extrapolation. P BSG17—Values from potentiometric titrations in Aqueous/MeOH mixtures followed by Yasuda-Shedlovsky extrapolation to 0% MeOH. All pKas basic from slop of extrapolation. PKas 2 and 3 for titration in 30% MeOH removed from YS extrapolation due to precipitation.

[5] = 0.9% NaCl mixed with 50% IPA, 0 days
[6] = 0.9% NaCl mixed with 50% IPA, 1 day, 4 ° C.
[7] = 0.9% NaCl mixed with 50% IPA, 1 day, 25 ° C.
[8] = 0.9% NaCl mixed with 50% IPA, 7 days, 4 ° C.
[9] = 0.9% NaCl mixed with 50% IPA, 7 days, 25 ° C.
[10] = 5% Dextrose mixed with 50% IPA, 0 days
[11] = 5% Dextrose mixed with 50% IPA, 1 day, 4 ° C.
[12] = 5% Dextrose mixed with 50% IPA, 1 day, 25 ° C.
[13] = 5% Dextrose mixed with 50% IPA, 7 days, 4 ° C.
[14] = 5% Dextrose mixed with 50% IPA, 7 days, 25 ° C.
[15] = UV + Pot, 25° C., 0.15 M KCl, read-out: Measured pKa, pKa1
[16] = potentiometric in aqueous/MeOH, Yasuda-Shedlovsky extrapolation to 0% MeOH, read-out: Measured pKa, pKa2
[17] = potentiometric in aqueous/MeOH, Yasuda-Shedlovsky extrapolation to 0% MeOH, read-out: Measured pKa, pKa3

## O=C(CCN1CCCC1)Nc1ccc2c(NCc3ccc(F)c(F)c3)c3ccc(NC(=O)CCN4CCCC4)cc3nc2c1 [BSG17, N-(9-(3,4-Difluoro-benzylamino)-6-(3-pyrolidin-1-yl-propionamide)-acridin-3-yl)-3-pyrrolidin-1-yl-propionamide]
[1]
  FRET: 0.46 µM
Metabolic stability, HLM
  HLM (t = 45): 3.1
  HLM (t = 90): 12.4
[2]
  IC50 at 96 h: 2120 nM
HPLC solution stability; [5]
  Combined rotamer purity: 89.4
  Purity larger rotamer peak: 61.4
  Purity smaller rotamer peak: 28.0
HPLC solution stability; [6]
  Combined rotamer purity: 85.1
  Purity larger rotamer peak: 58.4
  Purity smaller rotamer peak: 26.8
HPLC solution stability; [7]
  Combined rotamer purity: 82.4
  Purity larger rotamer peak: 55.9
  Purity smaller rotamer peak: 26.5
HPLC solution stability; [8]
  Combined rotamer purity: 61.0
  Purity larger rotamer peak: 39.2
  Purity smaller rotamer peak: 21.8
HPLC solution stability; [9]
  Combined rotamer purity: 54.5
  Purity larger rotamer peak: 33.8
  Purity smaller rotamer peak: 20.8
HPLC solution stability; [10]
  Combined rotamer purity: 88.5
  Purity larger rotamer peak: 60.7
  Purity smaller rotamer peak: 27.8
HPLC solution stability; [11]
  Combined rotamer purity: 83.8
  Purity larger rotamer peak: 56.9
  Purity smaller rotamer peak: 26.9
HPLC solution stability; [12]
  Combined rotamer purity: 78.0
  Purity larger rotamer peak: 52.4
  Purity smaller rotamer peak: 25.6
HPLC solution stability; [13]
  Combined rotamer purity: 53.2
  Purity larger rotamer peak: 32.5
  Purity smaller rotamer peak: 20.7
HPLC solution stability; [14]
  Combined rotamer purity: 39.4
  Purity larger rotamer peak: 22.3
  Purity smaller rotamer peak: 17.1
HPLC solution stability; 100% IPA, 0 days
  Combined rotamer purity: 84.6
  Purity larger rotamer peak: 58.8
  Purity smaller rotamer peak: 25.8
HPLC solution stability; 100% IPA, 1 day, 25 ° C.
  Combined rotamer purity: 81.5
  Purity larger rotamer peak: 56.6
  Purity smaller rotamer peak: 25.0
HPLC solution stability; 100% IPA, 14 days, 25 ° C.
  Combined rotamer purity: 77.2
  Purity larger rotamer peak: 52.7
  Purity smaller rotamer peak: 24.5
[3]
  IC50 at 96 h: 2260 nM
[4]; [15]
  pKa: 8.17
[4]; [16]
  pKa: 9.09
[4]; [17]
  pKa: 9.61

## CN(C)c1ccc(Nc2c3ccc(NC(=O)CCN4CCCC4)cc3nc3cc(NC(=O)CCN4CCCC4)ccc23)cc1 [BSG01]
[1]
  FRET: 0.72 µM
Metabolic stability, HLM
  HLM (t = 45): 6.1
  HLM (t = 90): 11.2
[2]
  IC50 at 96 h: 2420 nM
HPLC solution stability; [5]
  Combined rotamer purity: 95.4
  Purity larger rotamer peak: 89.8
  Purity smaller rotamer peak: 5.7
HPLC solution stability; [6]
  Combined rotamer purity: 95.7
  Purity larger rotamer peak: 86.8
  Purity smaller rotamer peak: 8.9
HPLC solution stability; [7]
  Combined rotamer purity: 93.5
  Purity larger rotamer peak: 82.3
  Purity smaller rotamer peak: 11.2
HPLC solution stability; [8]
  Combined rotamer purity: 66.8
  Purity larger rotamer peak: 47.5
  Purity smaller rotamer peak: 19.4
HPLC solution stability; [9]
  Combined rotamer purity: 47.6
  Purity larger rotamer peak: 35.1
  Purity smaller rotamer peak: 12.5
HPLC solution stability; [10]
  Combined rotamer purity: 94.8
  Purity larger rotamer peak: 88.7
  Purity smaller rotamer peak: 6.1
HPLC solution stability; [11]
  Combined rotamer purity: 94.5
  Purity larger rotamer peak: 84.5
  Purity smaller rotamer peak: 10.00
HPLC solution stability; [12]
  Combined rotamer purity: 94.5
  Purity larger rotamer peak: 79.5
  Purity smaller rotamer peak: 15.0
HPLC solution stability; [13]
  Combined rotamer purity: 79.3
  Purity larger rotamer peak: 48.4
  Purity smaller rotamer peak: 30.9
HPLC solution stability; [14]
  Combined rotamer purity: 68.0
  Purity larger rotamer peak: 35.2%
  Purity smaller rotamer peak: 32.8
HPLC solution stability; 100% IPA, 0 days
  Combined rotamer purity: 91.9
  Purity larger rotamer peak: 86.4
  Purity smaller rotamer peak: 5.5
HPLC solution stability; 100% IPA, 1 day, 25 ° C.
  Combined rotamer purity: 93.2
  Purity larger rotamer peak: 87.2
  Purity smaller rotamer peak: 6.0
HPLC solution stability; 100% IPA, 14 days, 25 ° C.
  Combined rotamer purity: 94.0
  Purity larger rotamer peak: 82.8
  Purity smaller rotamer peak: 11.2
[3]
  IC50 at 96 h: 2530 nM
[4]; [15]
  pKa: 4.15
[4]; aqueous UV, read-out: pKa from aqueous UV measurement
  pKa: 4.14
[4]; [16]
  pKa: 8.14
[4]; [17]
  pKa: 9.08
[4]; potentiometric in aqueous/MeOH, Yasuda-Shedlovsky extrapolation to 0% MeOH, read-out: Measured pKa, pKa4
  pKa: 9.31
[4]; titration medium, ionic strength adjusted with 0.15 M KCl, potentiometry, incomplete curves, read-out: pKa from potentiometry
  pKa: 4.15

Source: patent US20080319001A1, “Cancer Treatment Using Specific 3,6,9-Substituted Acridines” (priority 2005, published 2008)
